In publication PMC7098565 (PLoS ONE, 2020):
Where “and” joins values, the source holds several entries; their conditions need not be identical. Equal values may be shown once. Read-outs that look alike come from different tables or passages of the source.

Assays:
[1] = tested on: B16-F10; assay: Cytotoxicity to tumor cells, MTT assay; format: cell-based; conditions: Mus musculus, 24 h, mean ± S.D (n = 3), read-out: IC50 B16F10
[2] = tested on: CT26.WT; assay: Cytotoxicity to tumor cells, MTT assay; format: cell-based; conditions: Mus musculus, mean ± S.D (n = 3)
Experimental: Mouse melanoma cell line B16-F10 (ATCC® Number: CRL-6475™) and mouse cell line CT26.WT (TCM37) were obtained from Cell Culture Center of the Institute of Basic Medical Sciences, Chinese Academy of Medical Sciences. The cells were maintained in DMEM supplemented with 10% (v/v) heat-inactivated fetal bovine serum (FBS) in a humidified 5% CO2 atmosphere at 37 °C. Tumor cells were plated in 96-well plate with a density of 5 × 10^3 cells/well in 100 μL. […] The medium was subsequently discarded, and 150 μL of DMSO was added to dissolve the formazan crystals. The absorbance was measured at 570 nm using a Molecular Devices Spectra Max M5 (Molecular Devices, USA).

[3] = tested on: Human CD3+ cells; assay: Cytotoxicity to human CD3+ cells, CellTiter-Glo (CTG) assay; format: cell-based; conditions: 72 h, aCD3/aCD28 1 μg/mL, mean ± S.D (n = 3)
Experimental: Human CD3^+ cells with the purity above 95% were provided by LDEBIO company (Guangzhou, China). CD3^+ cells were plated in the 96-well plate with a density of 1 × 10^5 cells/well in 100 μL of DMEM medium containing 10% FBS. The 50 μL of anti-CD3 antibody and anti-CD28 antibody (aCD3 and aCD28, final concentration of 1 μg/mL for each) were added into 96-well plate. […] CellTiter-Glo (CTG) reagent was added into the wells to measure CD3^+ cell viability.

[4] = tested on: Human CD3+ cells; assay: IFN-γ secretion by human CD3+ cells in vitro (ELISA), rescue of PD-L1-mediated inhibition; format: cell-based; conditions: for IFN-γl: aCD3/aCD28 1 μg/mL + PD-L1 protein 10 nM, 72 h, single samples
Experimental: Human CD3^+ cells were plated in the 96-well plate with a density of 1 × 10^5 cells/well in 100 μL of DMEM containing 10% FBS. The 50 μL of aCD3 and aCD28 (final concentration of 1 μg/mL for each) were added into 96-well plate without or with 50 μL of human PD-L1 protein (final concentation of 10 nM). […] The supernatants were collected for detection of IFN-γ by using human IFN-γ ELISA Kit.

[5] = tested on: B16-F10 tumors; assay: B16-F10 tumor isograft model, tumor growth; format: in vivo, mice; conditions: for Tumor volume / Tumor weight: single mice
[6] = tested on: IFN-γ; assay: Plasma IFN-γ level in melanoma-bearing mice (ELISA); format: in vivo
[7] = tested on: T lymphocytes in tumors; assay: Flow cytometry of T lymphocytes in tumors from melanoma-bearing mice; format: in vivo; conditions: for % Treg of CD4^+ / % CD3^+ of lymphocyte / % CD4^+ of CD3^+ / % CD8^+ of CD3^+ / % CD8^+IFN-γ of CD3D^+CD8^+: tumor, day 20, single mice; for % Treg of CD4^+: Treg = CD4+CD25+CD127low/-
[8] = Pharmacokinetics in plasma and tumor from melanoma-bearing mice (LC-MS/MS); format: in vivo; conditions: single oral dose 60 mg/kg; for concentration at 1 h / concentration at 3 h: male, C57BL/6NCrl, mouse, plasma, po; for concentration at 1 h / concentration at 3 h / Concentration in Tumor: 60 mg/kg
Experimental: At 1h, 3h and 8h after the dosing, 5 mice were decapitated, respectively, for collecting plasma and tumor tissues. All plasma samples were centrifuged for 10 min at 3000 g, separated and stored at -20 °C for followed analysis. The tumor tissues were homogenated in water (w/v = 1:4). The LC-MS/MS system consisted of an Agilent 1100 series HPLC system (Agilent Technologies, Waldbronn, USA) and a TSQ Quantum Assess tandem mass spectrometer (Thermo Electron Corporation, San Jose, CA, USA) equipped with ESI ion source operation in the positive mode. Data acquisition and processing were accomplished using the Xcaliber workstation. The chromatography separation was performed on a Waters symmetry CLU columns (150 × 2.1 mm i.e., 3.5 am, Warders, USA) with the flow rate of 0.2 ml/min in isocratic elution. The mobile phase consisted of acetonitrile-methanol-water (50:30:20, v/v/v) containing 0.1 mm ammonium acetate and 0.01% glacial acetic acid. The selective reactions monitoring mode was used to detect the analyses. […] The spray voltage was 4 kv. Sheath gas and auxilinry gas were 30 and 5 psi, respectively. The capillary temperature was 350 °C and argon gas pressure was 1.5 milli-Torr.

[9] = molecular target: PD-1 and PD-L1 binding; design: method as in PMID 27083005; conditions: HTRF binding assay; cited from earlier work
[10] = 30 mg/kg oral twice daily, day 20
[11] = treatment groups (30 and 60 mg/kg), P < 0.05, n = 6

Structure (SMILES): COc1nc(OCc2cccc(-c3ccccc3)c2C)ccc1CNCCNC(C)=O [PCC0208025, N-(2-{[2-Methoxy-6-(2-methyl-biphenyl-3-ylmethoxy)-pyridin-3-ylmethyl]-amino}-ethyl)-acetamide]
- IC50 [1]: 32.1 ± 2.3 µM
- IC50 ([2]; 24 h): 21.9 ± 2.9 µM
- IC50 ([2]; 48 h): 15.3 ± 3.4 µM
- IC50 [3]: 10.3 ± 1.3 µM
- PD-L1-mediated inhibition of IFN-γ production ([4]; 0.01 to 1 μM, vs aCD3/aCD28 and PD-L1 group, P < 0.05, n = 6): markedly rescued
- IFN-γl ([4]; substance 0.1 mM (so in the source)): 768.3 pg/mL and 1056.6 pg/mL and 850.5 pg/mL and 945.6 pg/mL and 689.7 pg/mL and 789.4 pg/mL
- IFN-γl ([4]; substance 1 mM (so in the source)): 798.3 pg/mL and 824.3 pg/mL and 997.0 pg/mL and 723.5 pg/mL and 908.8 pg/mL and 857.7 pg/mL
- IFN-γl ([4]; substance 10 mM (so in the source)): 468.7 pg/mL and 398.5 pg/mL and 576.3 pg/mL and 435.3 pg/mL and 587.5 pg/mL and 523.4 pg/mL
- tumor weight compared with the control group ([5]; 30 mg/kg and 60 mg/kg, P < 0.05, n = 8): significantly decreased
- tumor volumes compared with the control group ([5]; 30 mg/kg and 60 mg/kg, day 20, P < 0.05, n = 8): significantly decreased
- Tumor volume ([5]; 30 mg/kg oral twice daily, day 7): 99.3 mm^3 and 102.9 mm^3 and 86.2 mm^3 and 112.1 mm^3 and 129.3 mm^3 and 84.9 mm^3 and 90.7 mm^3 and 100.1 mm^3
- Tumor volume ([5]; 30 mg/kg oral twice daily, day 9): 94.0 mm^3 and 102.4 mm^3 and 154.1 mm^3 and 112.8 mm^3 and 131.0 mm^3 and 131.8 mm^3 and 105.3 mm^3 and 143.3 mm^3
- Tumor volume [5, 10]: 898.0 mm^3 and 1417.3 mm^3 and 1288.9 mm^3 and 1376.0 mm^3 and 1578.0 mm^3 and 1342.0 mm^3 and 1122.6 mm^3 and 879.0 mm^3
- Tumor weight [5, 10]: 1578.0 mg
- IR (inhibition rate of tumor growth) according to tumor weight ([5]; 60 mg/kg oral gavage twice daily, day 20): 50.1%
- Tumor volume ([5]; 60 mg/kg oral twice daily, day 7): 88.0 mm^3 and 80.2 mm^3 and 120.2 mm^3 and 108.0 mm^3 and 102.8 mm^3 and 96.6 mm^3 and 115.1 mm^3 and 94.6 mm^3
- Tumor weight ([5]; 60 mg/kg oral twice daily, day 20): 1678.4 mg
- IFN-γ level in plasma ([6]; 60 mg/kg oral twice daily, day 20, single mice): 1678.5 pg/mL and 1589.6 pg/mL and 1467.7 pg/mL and 1256.8 pg/mL and 1756.2 pg/mL and 1476.1 pg/mL
- plasma IFN-γ levels compared with the control group ([6]; 30 and 60 mg/kg, P < 0.05, n = 6): markedly elevated
- percentage of CD4^+CD25^+CD127^low/− (Treg) in tumor compared with the control group ([7]; 30 mg/kg and 60 mg/kg, P < 0.05, n = 6): significantly decreased
- percentage of CD3^+CD4^+ T cells in tumor compared with the control group ([7]; 60 mg/kg group, P < 0.05, n = 6): significant decreases
- percentage of CD3^+ T cells in tumor compared with the control group [7, 11]: markedly increased
- percentage of CD3^+CD8^+ T cells in tumor compared with the control group [7, 11]: markedly increased
- percentage of CD8^+IFN-γ^+ T cells in tumor compared with the control group [7, 11]: markedly increased
- % Treg of CD4^+ ([7]; 30 mg/kg, 30 mg/kg): 26.25% and 33.66% and 35.98% and 35.44% and 36.86% and 31.41%
- % CD3^+ of lymphocyte ([7]; 30 mg/kg, 30 mg/kg): 58.95% and 61.13% and 52.42% and 62.48% and 58.92% and 54.72%
- % CD4^+ of CD3^+ ([7]; 30 mg/kg, 30 mg/kg): 38.97% and 39.86% and 36.50% and 29.65% and 37.02% and 40.10%
- % CD8^+ of CD3^+ ([7]; 30 mg/kg, 30 mg/kg): 38.80% and 39.05% and 45.77% and 42.49% and 39.23% and 36.71%
- % CD8^+IFN-γ of CD3D^+CD8^+ ([7]; 30 mg/kg, 30 mg/kg): 27.98% and 25.40% and 24.84% and 24.39% and 22.29% and 22.23%
- % Treg of CD4^+ ([7]; 60 mg/kg, 60 mg/kg): 32.63% and 30.22% and 32.76% and 31.72% and 28.26%
- % CD3^+ of lymphocyte ([7]; 60 mg/kg, 60 mg/kg): 72.64% and 70.58% and 61.04% and 62.21% and 61.98% and 64.77%
- % CD4^+ of CD3^+ ([7]; 60 mg/kg, 60 mg/kg): 36.42% and 31.49% and 39.77% and 27.21% and 38.87% and 37.34%
- % CD8^+ of CD3^+ ([7]; 60 mg/kg, 60 mg/kg): 40.72% and 50.51% and 43.82% and 50.59% and 42.04% and 42.77%
- % CD8^+IFN-γ of CD3D^+CD8^+ ([7]; 60 mg/kg, 60 mg/kg): 30.80% and 35.94% and 30.46% and 29.24% and 28.35% and 27.49%
- concentration at 1 h ([8]; 1h, n = 5, read-out: average concentration in plasma): ~4.36 nM
- concentration at 1 h ([8]; 1h, single mice, read-out: Concentration in Plasma): 3.8 nM
- concentration at 3 h ([8]; 3h, n = 5, read-out: average concentration in plasma): ~3.94 nM
- concentration at 3 h ([8]; 3h, single mice, read-out: Concentration in Plasma): 4.16 nM
- average concentration in tumor ([8]; 1h, n = 5): about 160.7 nmol/kg
- Concentration in Tumor ([8]; 1h, single mice): 167.3 nmol/kg and 207.3 nmol/kg and 154.8 nmol/kg and 139.1 nmol/kg and 136.3 nmol/kg
- average concentration in tumor ([8]; 3h, n = 5): ~196.7 nmol/kg
- Concentration in Tumor ([8]; 3h, single mice): 185.3 nmol/kg and 206.5 nmol/kg and 218.5 nmol/kg and 178.7 nmol/kg
- average concentration in tumor ([8]; 8h, n = 5): ~127.3 nmol/kg
- Concentration in Tumor ([8]; 8h, single mice): 132.4 nmol/kg and 146.7 nmol/kg and 123.3 nmol/kg and 103.8 nmol/kg and 133.2 nmol/kg
- IC50 [9]: 0.018 µM
